Measured values published in article PMC6213309, “Antibacterial Activity and Mechanism of Action of Bovine Lactoferricin Derivatives with Symmetrical Amino Acid Sequences” (International Journal of Molecular Sciences, 2018).
Like-named read-outs stand apart in the source and are kept apart here. Ends that are not written are not given here.

Tests used:
[1] = tested on: Salmonella pullorum C 7913; type: cell-based; details: 18 h
E. coli ATCC25922 = details: for MIC after Trypsin: peptide treated with 1 mg/mL trypsin
Method: (§1) The antimicrobial activity of the peptides were defined as the minimum inhibitory concentrations (MIC) according to the Clinical and Laboratory Standards Institute broth microdilution method as described previously. Briefly, 50 μL two-fold serial dilutions of peptides (with final concentrations ranging from 0 μM to 256 μM) and 50 μL bacterial fluids diluted with MHB were added to 96-well microtiter plates. The plates were then incubated at 37 °C for 18 h.
We assessed the salt stability, thermal stability, and enzymatic stability of the AMPs. Briefly, E. coli ATCC25922 was selected as the test bacterium. The control group was untreated peptides. Different concentrations of salts (150 mM NaCl, 4.5 mM KCl, 6 μM NH4Cl, 1 mM MgCl2, […], 8 mM […], 2.5 mM CaCl2, and 4 mM FeCl3) were added to the incubation buffer to examine the effect of each salt on the antimicrobial activities of the peptides. AMPs were treated for 1 h at 100 °C to test the thermal stability. AMPs were also treated with trypsin, pepsin, papain, and protease K at a concentration of 1 mg/mL for 1 h at 37 °C to test enzyme stability.

E. coli UB 1005 = type: cell-based
Method: (§2) The antimicrobial activity of the peptides were defined as the minimum inhibitory concentrations (MIC) according to the Clinical and Laboratory Standards Institute broth microdilution method as described previously [47]. Briefly, 50 μL two-fold serial dilutions of peptides (with final concentrations ranging from 0 μM to 256 μM) and 50 μL bacterial fluids diluted with MHB were added to 96-well microtiter plates. The plates were then incubated at 37 °C for 18 h.

[2] = tested on: Salmonella typhimurium C 7731; type: cell-based
Method: as §2

[3] = tested on: human red blood cells (hRBCs); test: Hemolytic activity; type: cell-based; details: lowest concentration causing 5% hemolysis of hRBCs; 1% hRBCs in PBS pH 7.2, 37 °C, 1 h, absorbance 570 nm
Method: Hemolytic activity against human red blood cells (hRBCs) was determined as described before. Briefly, 1 mL of fresh hRBCs was centrifuged in PBS (pH 7.2). After washing two times, the hRBCs were resuspended with PBS at a concentration of 1%. Next, 50 μL of the hRBCs solution was added to 50 μL PBS containing two-fold serial dilutions of peptides in each well. The plates were then incubated at 37 °C for 1 h and centrifuged at 1000× g for 5 min. The supernatants were removed, and the release of hemoglobin was determined by measuring the absorbance at 570 nm using a microplate reader (Bio-Rad, Hercules CA, USA). Erythrocyte suspensions in PBS and 0.1% Triton X-100 were used as negative and positive controls, respectively. Melittin was the control peptide.

[4] = tested on: S. epidermidis ATCC 12228; type: cell-based
Method: as §2

[5] = tested on: Salmonella typhimurium ATCC 14028; type: cell-based
Method: as §2

[6] = tested on: Salmonella enterica subsp. CMCC 50071; details: MHB, 37 °C, 18 h, peptides 0-256 μM, triplicate samples
Method: as §1

E. coli ATCC 25922 = type: cell-based
Method: as §2

S. aureus ATCC 25923 = type: cell-based
S. aureus ATCC 29213 = type: cell-based
[7] = Salmonella pullorum C 7913, MHB, 37 °C, peptides 0-256 μM, triplicate samples
[8] = E. coli ATCC25922, peptide treated 1 h at 100 °C
[9] = E. coli ATCC25922, peptide treated with 1 mg/mL papain, 1 h, 37 °C
[10] = E. coli ATCC25922, peptide treated with 1 mg/mL pepsin, 1 h, 37 °C
[11] = E. coli ATCC25922, peptide treated with 1 mg/mL protease K, 1 h, 37 °C
[12] = E. coli ATCC25922, untreated peptides
[13] = Salmonella typhimurium C 7731, MHB, 37 °C, 18 h, peptides 0-256 μM, triplicate samples
[14] = S. epidermidis ATCC 12228, MHB, 37 °C, 18 h, peptides 0-256 μM, triplicate samples
[15] = Salmonella typhimurium ATCC 14028, MHB, 37 °C, 18 h, peptides 0-256 μM, triplicate samples
[16] = S. aureus ATCC 25923, MHB, 37 °C, 18 h, peptides 0-256 μM, triplicate samples
[17] = S. aureus ATCC 29213, MHB, 37 °C, 18 h, peptides 0-256 μM, triplicate samples

With “KCRRWQWRMKK-NH2 [LFcinB18–28, reference compound]” the MIC [1, 7] was greater than 128 µM, the “MIC in the presence of NH4+” value (E. coli ATCC25922; E. coli ATCC25922, 6 μM NH4Cl) was 8 µM and the “MIC in the presence of Mg2+” value (E. coli ATCC25922; E. coli ATCC25922, 1 mM MgCl2) was 16 µM. For the same substance, the “MIC in the presence of Ca2+” value (E. coli ATCC25922; E. coli ATCC25922, 2.5 mM CaCl2) was 16 µM, the “MIC in the presence of Fe3+” value (E. coli ATCC25922; E. coli ATCC25922, 4 mM FeCl3) was 4 µM and the “MIC in the presence of K+” value (E. coli ATCC25922; E. coli ATCC25922, 4.5 mM KCl) was 16 µM. The “MIC in the presence of Zn2+” value (E. coli ATCC25922; E. coli ATCC25922, 8 mM ZnCl3) was 8 µM, the “MIC in the presence of Na+” value (E. coli ATCC25922; E. coli ATCC25922, 150 mM NaCl) was 16 µM and the “MIC following heating at 100 °C” value (E. coli ATCC25922; [8]) was 16 µM. For the same substance, the “MIC after Papain” value (E. coli ATCC25922; [9]) was greater than 128 µM, the “MIC after Pepsin” value (E. coli ATCC25922; [10]) was greater than 128 µM and the “MIC after Protease K” value (E. coli ATCC25922; [11]) was greater than 128 µM. The “MIC after Trypsin” value (E. coli ATCC25922; E. coli ATCC25922, 1 h, 37 °C) was greater than 128 µM, the “MIC, Control (enzymatic stability)” value (E. coli ATCC25922; [12]) was 16 µM and the “MIC, Control (thermal stability)” value (E. coli ATCC25922; [12]) was 16 µM. For the same substance, the “MIC, Control (salt stability)” value (E. coli ATCC25922; E. coli ATCC25922, untreated peptides, no added salt) was 16 µM, the MIC (E. coli UB 1005; E. coli UB 1005, MHB, 37 °C, 18 h, peptides 0-256 μM, triplicate samples) was 128 µM and the MIC [2, 13] was greater than 128 µM. The “MHC (minimum hemolytic concentration)” value [3] was greater than 256 µM, the MIC [4, 14] was greater than 128 µM and the MIC [5, 15] was greater than 128 µM. The MIC [6] was greater than 128 µM, the MIC (E. coli ATCC 25922; E. coli ATCC 25922, MHB, 37 °C, 18 h, peptides 0-256 μM, triplicate samples) was 16 µM and the MIC (S. aureus ATCC 25923; [16]) was 128 µM. For the same substance, the MIC (S. aureus ATCC 29213; [17]) was greater than 128 µM.
With KKRRWQWRRKK-NH2 [KK-KK] the MIC [1, 7] was 128 µM, the “MIC in the presence of Ca2+” value (E. coli ATCC25922; ATCC25922, 18 h) was 16 µM and the “MIC in the presence of Fe3+” value (E. coli ATCC25922; ATCC25922, 18 h) was 8 µM. The “MIC in the presence of K+” value (E. coli ATCC25922; ATCC25922, 18 h) was 16 µM, the “MIC in the presence of Mg2+” value (E. coli ATCC25922; ATCC25922, 18 h) was 64 µM and the “MIC in the presence of NH4+” value (E. coli ATCC25922; ATCC25922, 18 h) was 8 µM. The “MIC in the presence of Na+” value (E. coli ATCC25922; ATCC25922, 18 h) was 16 µM, the “MIC in the presence of Zn2+” value (E. coli ATCC25922; ATCC25922, 18 h) was 8 µM and the “MIC, Control (enzymatic stability)” value (E. coli ATCC25922; ATCC25922, 18 h) was 32 µM. For the same substance, the “MIC, Control (salt stability)” value (E. coli ATCC25922; ATCC25922, 18 h) was 32 µM, the “MIC, Control (thermal stability)” value (E. coli ATCC25922; ATCC25922, 18 h) was 32 µM and the “MIC following heating at 100 °C” value (E. coli ATCC25922; [8]) was greater than 128 µM. For the same substance, the “MIC after Papain” value (E. coli ATCC25922; [9]) was greater than 128 µM, the “MIC after Pepsin” value (E. coli ATCC25922; [10]) was greater than 128 µM and the “MIC after Protease K” value (E. coli ATCC25922; [11]) was greater than 128 µM. The “MIC after Trypsin” value (E. coli ATCC25922; E. coli ATCC25922, 1 h, 37 °C) was greater than 128 µM, the MIC (E. coli UB 1005; UB 1005, 18 h) was 32 µM and the MIC [2, 13] was greater than 128 µM. It also gave an MIC [4, 14] greater than 128 µM, an MIC [5, 15] greater than 128 µM and an MIC [6] of 128 µM. The MIC (E. coli ATCC 25922; ATCC25922, 18 h) was 32 µM, the MIC (S. aureus ATCC 25923; [16]) was 128 µM and the MIC (S. aureus ATCC 29213; [17]) was greater than 128 µM.
With KWRRWQWRRWK-NH2 [KW-WK] the MIC [1] was 16 µM, the “MIC after Papain” value (E. coli ATCC25922; ATCC25922, 1 h) was 8 µM and the “MIC after Pepsin” value (E. coli ATCC25922; ATCC25922, 1 h) was 16 µM. For the same substance, the “MIC after Protease K” value (E. coli ATCC25922; ATCC25922, 1 h) was 8 µM, the “MIC following heating at 100 °C” value (E. coli ATCC25922; ATCC25922, 1 h) was 4 µM and the “MIC in the presence of Ca2+” value (E. coli ATCC25922; ATCC25922, 18 h) was 8 µM. The “MIC in the presence of Fe3+” value (E. coli ATCC25922; ATCC25922, 18 h) was 4 µM, the “MIC in the presence of K+” value (E. coli ATCC25922; ATCC25922, 18 h) was 4 µM and the “MIC in the presence of Mg2+” value (E. coli ATCC25922; ATCC25922, 18 h) was 8 µM. The “MIC in the presence of NH4+” value (E. coli ATCC25922; ATCC25922, 18 h) was 8 µM, the “MIC in the presence of Na+” value (E. coli ATCC25922; ATCC25922, 18 h) was 8 µM and the “MIC in the presence of Zn2+” value (E. coli ATCC25922; ATCC25922, 18 h) was 8 µM. The “MIC, Control (enzymatic stability)” value (E. coli ATCC25922; ATCC25922, 18 h) was 4 µM, the “MIC, Control (salt stability)” value (E. coli ATCC25922; ATCC25922, 18 h) was 4 µM and the “MIC, Control (thermal stability)” value (E. coli ATCC25922; ATCC25922, 18 h) was 4 µM. For the same substance, the “MIC after Trypsin” value (E. coli ATCC25922; E. coli ATCC25922, 1 h, 37 °C) was greater than 128 µM, the MIC (E. coli UB 1005; UB 1005, 18 h) was 8 µM and the MIC ([2]; murium C 7731, 18 h) was 16 µM. The MIC ([4]; ATCC 12228, 18 h) was 8 µM, the MIC ([5]; ATCC 14028, 18 h) was 32 µM and the MIC [6] was 128 µM. It also gave an MIC (E. coli ATCC 25922; ATCC25922, 18 h) of 4 µM, an MIC (S. aureus ATCC 25923; ATCC 25923, 18 h) of 32 µM and an MIC (S. aureus ATCC 29213; ATCC 29213, 18 h) of 8 µM.
